Common to all, as to format: cell-based
The test system of data set [1] is Mel-Ab melanin cells. The experiment in a line: Melanin biosynthesis inhibiting effect in Mel-Ab melanin cells. The conditions noted are these: for melanin biosynthesis inhibition: terrein 0-100 uM, kojic acid 0-100 uM, FIG. 5 and FIG. 6. As for the experimental part:
Particularly, Mel-Ab melanin cells were cultured in DMEM medium supplemented with 10% fetal bovine serum (FBS), 100 nM phobol 12-myristate 13-acetate, 1 nM cholera toxin, 50 ug/ml of streptomycin and 50 U/ml of penicillin under the condition of 5% CO2, 37° C. Mel-Ab melanin cells cultured in the above experimental example 1 were treated respectively with terrein compound and kojic acid, a conventional whitening agent, at different concentrations (0, 10, 25, 50, 75 and 100 uM of terrein compound and 0, 1, 10 and 100 uM of kojic acid). Both Mel-Ab melanin cells cultured under general culture conditions and Mel-Ab melanin cells treated with terrein compound of the present invention were observed under a microscope for comparison, and the result was shown in FIG. 7.

For data set [2], the system named is Mel-Ab melanin cells. Briefly: Cytotoxicity test, crystal violet staining of Mel-Ab cells. The conditions noted are these: 24 hours, under the concentration of 100 uM, FIG. 4. As for the experimental part: In order to investigate cytotoxicity of terrein compound of the present invention, Mel-Ab cells were treated with the terrein compound.
Particularly, Mel-Ab melanin cells were cultured in DMEM medium supplemented with 10% fetal bovine serum (FBS), 100 nM phobol 12-myristate 13-acetate, 1 nM cholera toxin, 50 ug/ml of streptomycin and 50 U/ml of penicillin under the condition of 5% CO2, 37° C.
Mel-Ab melanin cells cultured above were treated with terrein compound at different concentrations (0, 10, 25, 50, 75, 100 uM) for 24 hours, followed by further culture. Then, medium was removed. Cells were stained with 0.5 ml of 0.1% crystal violet and Mel-Ab melanin cells were checked. Crystal violet was removed by washing several times. Crystal violet remaining in cells was extracted by using 1.0 ml of 95% ethanol. OD590 of the extracted crystal violet was measured by ELISA reader in order to investigate vitality of cells.

For data set [3], the system named is ERK (extracellular signal-regulated kinase). Briefly: ERK activation in Mel-Ab melanin cells by Western blot. Particulars: 100 uM. As for the experimental part: (§1) In order to investigate melanin biosynthesis inhibiting mechanism of terrein compound of the present invention, Mel-Ab melanin cells cultured above were treated with 100 uM of terrein compound. And at each time point of 0, 2, 10, 30, 60, 180, and 360 minute, ERK (extracellular signal-regulated kinase) activation and MITF (microphthalmia-associated transcription factor) decomposition were investigated by Western blot.
(Immunoblotting shows a protein as a band on a membrane.)

Data set [4] relates to MITF (microphthalmia-associated transcription factor). The experiment in a line: MITF decomposition in Mel-Ab melanin cells by Western blot. Particulars: 100 uM, with ERK activation. The procedure:
as §1

Consider `O=c1cc(CO)occ1O` [kojic acid, reference compound], for which the melanin biosynthesis inhibition entry in the data set on Mel-Ab melanin cells [1] is recorded as “inhibited melanin biosynthesis dose-dependently”.
Regarding `C/C=C/C1=CC(=O)C(O)C1O` (stereo not drawn) [terrein compound, 4,5-dihydroxy-3-propenyl-2-cyclopenten-1-one], the “cytotoxicity (vitality of cells, OD590 of crystal violet)” value with Mel-Ab melanin cells [2] is on record as “no cytotoxicity”. Moreover, in data set [3], the “duration of ERK activation” value was no less than 6 h; the “time from treatment to ERK1 and ERK2 activation” value was in the range of 2 to 10 min. In data set [3] (FIG. 8), the “ERK1 and ERK2 activation” value was “activated fast”. Further, the “expression of MITF” value in data set [4] is recorded as “decreased”. Besides, the “melanin biosynthesis inhibiting effect relative to kojic acid” value in the data set on Mel-Ab melanin cells [1] (both at 10 uM) was determined as 10 times. Also, the “dark melanin of cells observed under a microscope” value in the data set with Mel-Ab melanin cells [1] (dose-dependently, FIG. 7) is “clearly decreased”. The melanin biosynthesis inhibition entry in the data set with Mel-Ab melanin cells [1] was “inhibited melanin biosynthesis dose-dependently”.

These data come from US20070128136A1, “Terrein compound having melanin biosynthesis inhibitors and its preparation” (priority 2003, published 2007).
